In patent publication US10077436B2, “Beta-glucosidase enzymes for increased biomass saccharification” (Edeniq, Inc., priority 2013, dated 2018):

System: A-BG (Accellerase® BG from DuPont), commercial beta-glucosidase
Assay: BG kinetics, cellobiose hydrolysis assay (HPLC) with glucose as competitive inhibitor, A-BG
Assay type: biochemical
Excerpt: The kinetic properties of beta glucosidase are important for cellulosic hydrolysis, since in commercial situations a wide range of substrate concentrations and different product inhibition conditions will be encountered. In this example, a Michaelis-Menten kinetics model was used to describe BG kinetics.
BG activity assay using cellobiose is the other standard assay to measure BG or cellobiase activity, which utilizes hydrolysis of cellobiose by cellobiase into two molecules of glucose, the last step of enzymatic hydrolysis of cellulose. One cellobiase unit (commonly termed as CBU) is defined as the amount of enzyme that converts […] of cellobiose or produces 2 μmol of glucose per min. Briefly, to determine BG activity, 25 μL of diluted enzyme in 50 mM citrate buffer (pH 4.8) equilibrated to 50° C. was mixed with 25 μL cellobiose (or cellobiose/glucose mixture for the kinetic study) to start the reaction. The mixture was incubated at 50° C. for 10 min, and the reaction was terminated by incubating the mixture at 99° C. for 5 min. Different methods are available to measure the glucose produced in the assays. For the kinetic study, HPLC was used.
To determine kinetic properties using cellobiose substrate, duplicate assays with cellobiose concentrations ranging from 0.47 to 15 mM and glucose concentrations of 0, 0.9, 4.5, 6.75, and 8.1 (for A-BG) or 9 (for all the other three BGs) g/L were performed. As for pNPG substrate, the range of cellobiose substrate concentration was chosen to show detectable activity at the lowest substrate concentration and saturation stage at high substrate concentration. […] Moreover, theoretically there are two ways to measure BG activity by HPLC when cellobiose is used as the substrate: tracking consumption of cellobiose or tracking production of glucose. […] In Table 3, A % is defined as follows and is an indicator of measurement sensitivity, since the difference of substrate or product concentrations before and after reaction was used to determine BG activity. Δ%=(start conc. of cellobiose−end conc. of cellobiose)/start conc. of cellobiose×100% (3) Δ%=(end conc. of glucose−start conc. of glucose)/start conc. of glucose×100% (4)
A similar simultaneous nonlinear regression method based on the competitive inhibition equation expressed in Equation (1) was used to determine kinetic parameters of BG towards cellobiose.
The specific activity used here was determined by the initial velocity approach that is required by implementing Michaelis-Menten model (Copeland, 2000). The specific activity was determined by measuring consumption of cellobiose in the first 10 min of reaction and was expressed as μmol min^−1 mg^−1, where mg^−1 means per mg of total protein. The relative activity was determined based on the maximum activity obtained in the absence of initial glucose inhibition.
The above experimental data were fit in the competitive inhibition model as expressed in Equation (1) by simultaneous nonlinear regression.

OC[C@H]1OC(O)[C@H](O)[C@@H](O)[C@@H]1O (stereo partly drawn) [glucose]
loss of activity towards cellobiose under glucose inhibition (9 g/L (0.9% w/v) initial glucose, cellobiose substrate): completely lost its activity | Ki (cellobiose substrate, competitive inhibition, pH 4.8, 50° C.): 5.2 ± 0.63 mM | Km/Ki (inhibitor influence, Km for cellobiose / Ki for glucose, pH 4.8, 50° C.): 1.26
